Reference: ChEMBL document CHEMBL1152978 (J Med Chem, 2009)

Columns and labels:
[1] = test system: Mus musculus; assay: Toxicity in Swiss mouse assessed as occurrence of mydriasis at 30 mg/kg, ip up to 24 hrs; assay type: organism-based; set-up: dose 30 mg/kg, route intraperitoneal; conditions: in vivo
[2] = test system: Cavia porcellus; assay: Inhibition of acetylcholine-induced bronchoconstriction in Dunkin-Hartley guinea pig assessed as time taken to recover 50% of maximum inhibitory effect at 3 mg/mL administered as nebulized solution; assay type: functional
[3] = test system: Mus musculus; assay: Toxicity in Swiss mouse assessed as neurobiological state and occurrence of xerostomia at 30 mg/kg, ip up to 24 hrs; assay type: organism-based; set-up: dose 30 mg/kg, route intraperitoneal; conditions: in vivo
[4] = molecular target: T1, Muscarinic acetylcholine receptor M1 (Homo sapiens, UniProt P11229); assay: Displacement of [3H]NMS from human muscarinic M1 receptor expressed in CHOK1 cells by microplate scintillation counting; assay type: cell-based, CHO-K1
T1 sequence (P11229 whole entry): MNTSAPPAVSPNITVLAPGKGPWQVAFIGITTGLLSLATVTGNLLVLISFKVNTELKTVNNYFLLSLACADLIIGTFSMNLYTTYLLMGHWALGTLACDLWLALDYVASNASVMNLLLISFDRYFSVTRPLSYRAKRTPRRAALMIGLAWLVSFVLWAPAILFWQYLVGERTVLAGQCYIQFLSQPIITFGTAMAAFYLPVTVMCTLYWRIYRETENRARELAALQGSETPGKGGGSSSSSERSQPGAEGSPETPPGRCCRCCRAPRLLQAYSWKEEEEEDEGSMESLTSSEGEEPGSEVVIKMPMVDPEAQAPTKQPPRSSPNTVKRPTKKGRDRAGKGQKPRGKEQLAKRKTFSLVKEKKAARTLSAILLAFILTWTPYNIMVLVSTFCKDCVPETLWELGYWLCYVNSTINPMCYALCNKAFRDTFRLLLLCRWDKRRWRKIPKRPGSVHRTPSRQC

[5] = molecular target: T2, Muscarinic acetylcholine receptor M3 (Homo sapiens, UniProt P20309); assay: Displacement of [3H]NMS from human muscarinic M3 receptor expressed in CHOK1 cells by microplate scintillation counting; assay type: cell-based, CHO-K1
[6] = molecular target: T3, Muscarinic acetylcholine receptor M2 (Homo sapiens, UniProt P08172); assay: Displacement of [3H]NMS from human muscarinic M2 receptor expressed in CHOK1 cells by microplate scintillation counting; assay type: cell-based, CHO-K1
T3 sequence (P08172 whole entry): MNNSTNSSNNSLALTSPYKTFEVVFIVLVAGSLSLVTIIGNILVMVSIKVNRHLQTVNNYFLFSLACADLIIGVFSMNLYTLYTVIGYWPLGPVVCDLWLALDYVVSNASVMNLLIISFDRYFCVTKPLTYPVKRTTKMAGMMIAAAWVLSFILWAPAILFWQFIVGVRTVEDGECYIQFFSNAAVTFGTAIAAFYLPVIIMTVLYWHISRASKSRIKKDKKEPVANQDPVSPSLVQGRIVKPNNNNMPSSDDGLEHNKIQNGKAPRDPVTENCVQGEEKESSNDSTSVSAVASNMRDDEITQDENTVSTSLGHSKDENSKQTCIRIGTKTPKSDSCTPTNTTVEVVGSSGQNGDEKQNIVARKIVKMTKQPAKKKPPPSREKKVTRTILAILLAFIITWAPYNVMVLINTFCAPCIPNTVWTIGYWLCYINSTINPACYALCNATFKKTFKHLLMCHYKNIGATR

[7] = test system: Cavia porcellus; assay: Inhibition of acetylcholine-induced bronchoconstriction in Dunkin-Hartley guinea pig assessed as time taken to recover 50% of maximum inhibitory effect at 1 mg/mL administered as nebulized solution; assay type: functional
[8] = Chemical stability assessed as half life at pH 7.4 by UV-HPLC analysis; assay type: physicochemical; conditions: buffer
[9] = Metabolic stability in human plasma assessed as elimination half life at pH 7.4; assay type: ADME, cell-free; conditions: read-out: beta t1/2
[10] = molecular target: T2, Muscarinic acetylcholine receptor M3
Description: Binding affinity to muscarinic M3 receptor

[11] = molecular target: T3, Muscarinic acetylcholine receptor M2; assay: Binding affinity to muscarinic M2 receptor
[12] = molecular target: T1, Muscarinic acetylcholine receptor M1; assay: Binding affinity to muscarinic M1 receptor
[13] = test system: Cavia porcellus; assay: Inhibition of acetylcholine-induced bronchoconstriction in Dunkin-Hartley guinea pig assessed as time taken to recover 50% of maximum inhibitory effect at 1 mg/mL administered as nebulized solution
[14] = test system: Cavia porcellus; assay: Inhibition of acetylcholine-induced bronchoconstriction in Dunkin-Hartley guinea pig administered as nebulized solution; assay type: functional, organism-based

T2 sequence (P20309 whole entry): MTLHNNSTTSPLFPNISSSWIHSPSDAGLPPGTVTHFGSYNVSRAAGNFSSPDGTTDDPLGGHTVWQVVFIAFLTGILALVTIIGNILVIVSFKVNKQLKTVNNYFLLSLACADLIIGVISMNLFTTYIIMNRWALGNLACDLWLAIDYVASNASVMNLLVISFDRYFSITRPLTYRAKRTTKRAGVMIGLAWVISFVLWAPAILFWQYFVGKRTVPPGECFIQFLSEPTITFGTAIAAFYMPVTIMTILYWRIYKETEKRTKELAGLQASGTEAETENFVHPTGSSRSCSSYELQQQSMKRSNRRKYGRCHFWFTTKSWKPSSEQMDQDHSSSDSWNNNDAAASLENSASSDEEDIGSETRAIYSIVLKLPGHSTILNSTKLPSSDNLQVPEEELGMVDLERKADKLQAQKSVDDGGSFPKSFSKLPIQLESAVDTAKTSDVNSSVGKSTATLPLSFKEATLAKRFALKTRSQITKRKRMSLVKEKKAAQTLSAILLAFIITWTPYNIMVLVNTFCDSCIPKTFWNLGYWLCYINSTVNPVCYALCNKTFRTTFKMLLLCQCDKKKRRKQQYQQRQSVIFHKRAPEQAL

CC(C)[N+]1(C)C2CCC1CC(OC(=O)C(CO)c1ccccc1)C2.O.[Br-] (stereo unspecified)
Activity [1]: Toxic

O=C(O[C@H]1C[N+]2(CCCOc3ccccc3)CCC1CC2)[C@@](O)(c1cccs1)C1CCCC1.[Br-]
Time [2]: >6 h | Activity [3]: Non-toxic | IC50 [4]: 0.81 nM | IC50 [5]: 1.62 nM | IC50 [6]: 1.01 nM

O=C(O[C@H]1C[N+]2(CCCOc3ccccc3)CCC1CC2)C(c1cccs1)c1cccs1.[Br-]
Activity [3]: Non-toxic | IC50 [4]: 0.34 nM | IC50 [5]: 0.37 nM | IC50 [6]: 0.35 nM

O=C(O[C@H]1C[N+]2(CCCOc3ccccc3)CCC1CC2)C(O)(c1ccsc1)c1ccsc1.[Br-]
Activity [3]: Non-toxic | IC50 [4]: 0.23 nM | IC50 [5]: 0.24 nM | IC50 [6]: 0.18 nM

O=C(O[C@H]1C[N+]2(CCCOc3ccccc3)CCC1CC2)C(O)(c1ccccc1)c1ccccc1.[Br-]
Time [2]: >6 h | Activity [3]: Non-toxic | IC50 [4]: 0.31 nM

O=C(O[C@H]1C[N+]2(CCCCc3ccccc3)CCC1CC2)C(O)(c1cccs1)c1cccs1.[Br-]
Time [2]: 6 h | Activity [3]: Non-toxic | IC50 [4]: 0.29 nM | IC50 [5]: 0.45 nM | Time [7]: 6 h | IC50 [6]: 0.38 nM

CC1(C(=O)O[C@H]2C[N+]3(CCCOc4ccccc4)CCC2CC3)c2ccccc2Oc2ccccc21.[Br-]
Activity [3]: Non-toxic | IC50 [4]: 0.28 nM | IC50 [6]: 0.27 nM

O=C(O[C@H]1C[N+]2(CCCOc3ccccc3)CCC1CC2)[C@@](O)(c1ccccc1)c1cccs1.[Br-]
Activity [3]: Non-toxic | IC50 [4]: 0.16 nM | IC50 [5]: 0.25 nM | IC50 [6]: 0.17 nM

O=C(O[C@H]1C[N+]2(CCCOc3ccccc3)CCC1CC2)[C@](O)(c1cccs1)C1CCCC1.[Br-]
Time [2]: >6 h | Activity [1]: Toxic | Activity [3]: Non-toxic | IC50 [4]: 0.15 nM | IC50 [5]: 0.18 nM | half-life [8]: > 1 h | Time [7]: >6 h | half-life [9]: > 1 h | IC50 [6]: 0.14 nM | Ki [10]: 0.07 nM | Ki [11]: 0.06 nM | Ki [12]: 0.09 nM

O=C(O[C@H]1C[N+]2(CCc3ccccc3)CCC1CC2)C1c2ccccc2Oc2ccccc21.[Br-]
Activity [3]: Non-toxic | IC50 [4]: 0.44 nM | IC50 [5]: 0.31 nM | Time [7]: >6 h | IC50 [6]: 1.82 nM

CC1(C(=O)O[C@H]2C[N+]3(CCCOc4ccccc4)CCC2CC3)c2ccccc2-c2ccccc21.[Br-]
Activity [3]: Non-toxic | IC50 [4]: 1.26 nM | IC50 [5]: 0.96 nM | IC50 [6]: 2.1 nM

CC(C(=O)O[C@H]1C[N+]2(CCCOc3ccccc3)CCC1CC2)(c1cccs1)c1cccs1.[Br-]
Activity [3]: Non-toxic | IC50 [4]: 0.6 nM | IC50 [5]: 0.59 nM | IC50 [6]: 0.73 nM

O=C(O[C@H]1C[N+]2(CCCOc3ccccc3)CCC1CC2)C1(O)c2ccccc2-c2ccccc21.[Br-]
Time [2]: >6 h | Activity [3]: Non-toxic | IC50 [4]: 0.63 nM | IC50 [5]: 0.71 nM | IC50 [6]: 1.08 nM

O=C(O[C@H]1C[N+]2(CCc3ccccc3)CCC1CC2)C1(O)c2ccccc2-c2ccccc21.[Br-]
Activity [3]: Non-toxic | IC50 [4]: 1.12 nM | IC50 [5]: 1.04 nM | Time [7]: >6 h | IC50 [6]: 2.24 nM

O=C(O[C@H]1C[N+]2(CCCOc3ccccc3)CCC1CC2)C1(O)c2ccccc2Oc2ccccc21.[Br-]
Activity [3]: Non-toxic | IC50 [4]: 0.23 nM | IC50 [5]: 1.04 nM | Time [7]: >6 h | IC50 [6]: 0.36 nM

O=C(O[C@H]1C[N+]2(CCc3ccccc3)CCC1CC2)C1(O)c2ccccc2Oc2ccccc21.[Br-]
Activity [3]: Non-toxic | IC50 [4]: 0.29 nM | IC50 [5]: 0.28 nM | Time [7]: >6 h | IC50 [6]: 0.54 nM

O=C(O[C@H]1C[N+]2(CCCOc3ccccc3)CCC1CC2)[C@](O)(c1ccccc1)c1cccs1.[Br-]
Activity [3]: Non-toxic | IC50 [4]: 0.38 nM | IC50 [5]: 0.48 nM | IC50 [6]: 0.31 nM

O=C(O[C@H]1C[N+]2(CCCOc3ccccc3)CCC1CC2)C(O)(c1cccs1)c1cccs1.[Br-] [ACLIDINIUM BROMIDE]
Activity [1]: Non-toxic | Activity [3]: Non-toxic | IC50 [4]: 0.14 nM | half-life [8]: 1 h | Time [7]: >6 h | Time [13]: >6 h | half-life [9]: 0.0367 h | IC50 [14]: 140 µg/mL | Ki [12]: 0.08 nM

C[N+]1(C)[C@@H]2C[C@@H](OC(=O)C(O)(c3cccs3)c3cccs3)C[C@H]1[C@@H]1O[C@@H]12.O.[Br-] [TIOTROPIUM BROMIDE]
Activity [1]: Toxic | Time [7]: >6 h | IC50 [14]: 45 µg/mL
